# In patent US12306535B2, “Photoacid generator for chemically amplified photoresists for deep ultra violet and extreme ultraviolet lithography” (International Business Machines Corporation, priority 2022, dated 2025):
# What was measured:
# [1] = Acid-dissociation constant relative to tris(trifluoromethylsulfonyl)methane; type: physicochemical; conditions: compared with tris(trifluoromethylsulfonyl)methane
# [2] = smaller than that of tris(trifluoromethylsulfonyl)methane; cited from earlier work
# [3] = relative to triphenylantimony and triphenylbismuth; cited from earlier work
compound,measurement,setting,value
"N#Cc1[b-]2c(C#N)c(C#N)c(C#N)c(C#N)c2c(C#N)c(C#N)c1C#N.c1ccc([S+](c2ccccc2)c2ccccc2)cc1 [17B, triphenylsulfonium 1,2,3,4,5,6,7,8-octacyanobenzo[a]borinine]",acid-dissociation constant of acids generated upon UV exposure,[1],higher than that of tris(trifluoromethylsulfonyl)methane
"N#Cc1[b-]2c(C#N)c(C#N)c(C#N)c(C#N)c2c(C#N)c(C#N)c1C#N.c1ccc([I+]c2ccccc2)cc1 [17D, diphenyliodonium 1,2,3,4,5,6,7,8-octacyanobenzo[a]borinine]",acid-dissociation constant of acids generated upon UV exposure,[1],higher than that of tris(trifluoromethylsulfonyl)methane
"N#Cc1[b-]2c(C#N)c(C#N)c(C#N)c(C#N)c2c(C#N)c(C#N)c1C#N.c1ccc([S+]2CCCC2)cc1 [17F, phenylthiolanium 1,2,3,4,5,6,7,8-octacyanobenzo[a]borinine]",acid-dissociation constant of acids generated upon UV exposure,[1],higher than that of tris(trifluoromethylsulfonyl)methane
CC1(C)C2CCC1(CS(=O)(=O)O)C(=O)C2 (stereo not drawn) [camphorsulfonic anions],acid-dissociation constant,[2],about 18 orders of magnitude
"diphenyliodonium bis(1,2,2-tricyanoethen-1-yl)-(1,1,2,4,5,5-hexacyanopent-1,4-dien-3-yl)borane [17C]",acid-dissociation constant of acids generated upon UV exposure,[1],higher than that of tris(trifluoromethylsulfonyl)methane
p-toluenesulfonate [p-toluenesulfonate anions],acid-dissociation constant,[2],about 18 orders of magnitude
"phenylthiolanium bis(1,2,2-tricyanoethen-1-yl)-(1,1,2,4,5,5-hexacyanopent-1,4-dien-3-yl)borane [17E]",acid-dissociation constant of acids generated upon UV exposure,[1],higher than that of tris(trifluoromethylsulfonyl)methane
"triphenylsulfonium bis(1,2,2-tricyanoethen-1-yl)-(1,1,2,4,5,5-hexacyanopent-1,4-dien-3-yl)borane [17A]",acid-dissociation constant of acids generated upon UV exposure,[1],higher than that of tris(trifluoromethylsulfonyl)methane
triphenyltin,mean lethal dose LD50,[3],one to two orders of magnitude lower
